Laboratory results from patent US9072729B2, “Method for treating fibrosis and cancer with imidazolium and imidazolinium compounds” (Agency for Science, Technology and Research, priority 2008, dated 2015).

What was measured:
[1] = tested on: liver fibrosis induced by thioacetamide (TAA); assay: Liver fibrosis in mice induced by thioacetamide (TAA); format: in vivo, mouse; settings: TAA model, 500 mg/L in drinking water, 12 weeks
Method: FIG. 15 Effect of DBZIM and DPIM on liver fibrosis in mice. DBZIM was tested on mice induced by (a) liver toxin thioacetamide (TAA) or by (b) bile duct ligation (BDL). DPIM was also tested on mice induced by TAA (data not shown)) or by (c) bile duct ligation (BDL).
For the liver toxin thioacetamide (TAA) model, TAA was given by i.p. injection at 200 mg/kg body weight, 3 times per week, for 12 weeks, to induce hepatic fibrosis in mice. For the bile duct ligation model (BDL), adult mice were anesthetized with Ketamine (150 mg/kg)/Xylazine (10 mg/kg) via i.p. injection. An abdominal incision at the midline is made to expose the common bile conduct, which was then ligated using 5-0 silk suture. In the control animal, the bile duct is exposed, but not ligated. DBZIM or DPIM was provided to the mice in drinking water at concentrations from 1 to 1000 mg/liter. The collagen content in the fibrotic liver was assessed by the Sirius Red staining of the liver tissue sections.

U87 MG = assay: Caspase 3/7 activity in U87 MG; format: cell-based, human; settings: 2 mM, 6 hr
Method: FIG. 30. DBZIM inhibited cell proliferation in glioma cell line C6 (A) and U87 MG (C) and induced caspase 3/7 activity in C6 (B) and U87 MG (D). C6 or U87 cells were incubated with DBZIM of various concentrations for 48 hr for proliferation assay and 6 hr for caspase 3/7 activation assay. Proliferation was measured using MTS kit from Promega and expressed as relative cell proliferation with control group was normalized to 1. Caspase 3/7 activity was quantified using a kit from Promega and also expressed as relative caspase 3/7 activity of treated groups over control group.
Capspase 3/7 activity and lactate dehydrogenase (LDH) release were measured by Fluorometric assays (Promega Corp., WI, USA). The HCC cells were cultured in 96-well plate and treated with DBZIM of various concentrations for 6 hr before assays. For caspase 3/7 assay, medium was removed and substrate buffer was added to lyse the cell and react with caspase 3/7 to give rise to fluorescence signal which was read at Ex=485 nm and Em=530 nm on a Tecan Safire II plate reader after 1 hr incubation. The caspase 3/7 activity of sample cells with the compound treatment was expressed as relative fold change after normalizing to the control cells. The LDH assay (indicative of membrane integrity) was performed using a Kit from Promega Corp according to manufactor's instructions.

AGS = assay: Proliferation assay (MTS), gastric cancer cell line; format: cell-based; settings: Homo sapiens, 72 h, day 3
Method: Proliferation of Glioma cell lines: U87 MG and C6 under the treatment of DBZIM was examined using 3-(4,5-dimethylthiazol-2-yl)-5-(3-carboxymethoxyphenyl)-2-(4-sulfophenyl)-2H-tetrazolium (MTS) based proliferation assay kit (Promega, Wis., USA). MTS reagent was added to the control and treated cells (after 48 hr) directly and the absorbance signal was read at 490 nm using a Tecan Safire II plate reader.
The IC50 value (determined at day 3) was 50 μM for H1299 (lung cancer); 50 μM for MCF-7 (breast cancer), and 40 μM for AGS gastric cancer at day 3 (Table 3).

[2] = tested on: cytochrome C in HLE cells; assay: Western blot of cytochrome c release from mitochondria to cytosol; format: cell-based, human; settings: 1.5 mM, 24 hr
Method: FIG. 23. (A). […] HLE cells were grown in a T75 flask and treated with DBZIM for 24 hr. The cells were then lysed and cytoplasmic protein was collected for assaying caspase 8, 9 and 3 using kits from Biovision. The data was normalized against the vehicle control. (B). […] HLE cells were treated by DBZIM of 1.5 mM for 24 hr. Cytosolic and mitochondria protein fractions were collected using a kit from Biovision. 15 μg of each protein was resolved in 4-12% gradient PAGE-SDS gel. The target proteins were recognized by antibody of cytochrome C, and visualized by the ECL method. […]
Protein extracts were prepared by lysing cell pellet in RIPA buffer (Pierce, Ill., USA) for total protein extract, or in NE-PER reagent from Pierce (Pierce, Ill., USA) for nuclear and cytoplasmic fractions, or in a Kit from BioVision (CA, USA) for mitochondria and cytosol fractions. Protein content was quantified using BCA Kit (Pierce, Ill., USA). […] The membrane was then probed with primary antibodies against Bcl-XL, Bak, Bcl-2α, Bax (Lab Vision Corp., CA, USA), survivin, xIAP, cIAP (R&D systems Inc., MN, USA), c-Jun, c-Fos, JunB, JunD, Fra-1, Fra-2 (Santa Cruz Biotechnology, CA, USA) respectively, and detected by horseradish peroxidase-conjugated secondary antibody (Santa Cruz Biotechnology, CA, USA). Protein bands were recorded on X-ray film by reacting with ECL chemiluminescence reagents (Amersham Biosciences, NJ, USA). […]

[Br-].c1ccc(Cn2cc[n+](Cc3ccccc3)c2)cc1 [DBZIM, 1,3-bisbenzylimidazolium bromide]
liver fibrosis (Sirius Red collagen) [1]: attenuated fibrosis
elevation of caspase 3/7 (U87 MG): 17 folds
IC50 (AGS): 40 µM
release of cytochrome C from the mitochondria to the cytosol [2]: minimal release
